Assay results reported in patent publication US9133204B2, “5-membered heterocyclic amides and related compounds” (H. Lundbeck A/S, priority 2007, dated 2015).

Biological target: T1, P2X7 receptor (Homo sapiens, UniProt Q99572)
T1 construct: host or cells: SH-SY5Y
T1 sequence (Q99572 1-595): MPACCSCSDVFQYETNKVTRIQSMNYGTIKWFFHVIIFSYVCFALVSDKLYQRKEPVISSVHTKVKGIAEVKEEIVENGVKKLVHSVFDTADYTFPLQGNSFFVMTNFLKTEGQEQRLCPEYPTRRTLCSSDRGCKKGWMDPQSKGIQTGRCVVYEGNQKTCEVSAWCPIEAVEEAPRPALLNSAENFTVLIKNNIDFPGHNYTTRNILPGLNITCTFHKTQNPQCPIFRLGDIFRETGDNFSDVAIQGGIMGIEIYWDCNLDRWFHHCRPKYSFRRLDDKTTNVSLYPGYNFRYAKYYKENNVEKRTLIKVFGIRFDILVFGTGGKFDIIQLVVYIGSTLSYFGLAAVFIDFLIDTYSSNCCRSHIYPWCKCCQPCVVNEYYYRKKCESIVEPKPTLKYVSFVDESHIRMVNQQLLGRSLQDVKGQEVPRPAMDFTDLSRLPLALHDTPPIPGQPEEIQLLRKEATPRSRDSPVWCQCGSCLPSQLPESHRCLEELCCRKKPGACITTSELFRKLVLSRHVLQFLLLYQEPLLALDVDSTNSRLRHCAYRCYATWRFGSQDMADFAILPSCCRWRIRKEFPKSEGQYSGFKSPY
Experiment: High throughput P2X7 calcium mobilization assay (Example 4A)
Format: cell-based
Settings: SH-SY5Y cells, 50% decrease in fluorescence response of cells exposed to 80 μM BzATP
How it was run: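 SH-SY5Y cells loaded with 2.3 μM Fluo-4 AM for 1 h at 37 °C, then preincubated 1 h at room temperature with test compound (final 1–2500 nM) in low-sodium sucrose buffer, pH 7.4. Antagonism measured against 80 μM BzATP (about EC50) as peak FLIPR calcium fluorescence over 2 min, corrected by no-agonist background.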

[1] = flag after the MS data in Examples 1-2

IC50 (Table I) | IC50 [1] | SMILES
≤ 2000 nM |  | Cc1nn(-c2nccc(N)n2)cc1C(=O)NCC12CC3CC(CC(C3)C1)C2 [Compound 99, N-(adamantan-1-ylmethyl)-1-(4-aminopyrimidin-2-yl)-3-methyl-1H-pyrazole-4-carboxamide]
≤ 2000 nM |  | CCc1nc(-c2ncccn2)sc1C(=O)NCC1(c2ccc(OC)cc2)CCCCC1 [Compound 250, 4-ethyl-N-{[1-(4-methoxyphenyl)cyclohexyl]methyl)-2-pyrimidin-2-yl-1,3-thiazole-5-carboxamide]
 | ≤ 2000 nM | Cc1ccc(C2(CNC(=O)c3cc(-c4ccccc4)nn3C)CCCCC2)cn1 [Compound 20, 1-Methyl-3-phenyl-N-{[1-(methylpyridin-3-yl)cyclohexyl]methyl}-1H-pyrazole-5-carboxamide]
 | ≤ 2000 nM | O=C(NCC12CC3CC(CC(C3)C1)C2)c1cn(-c2ncccn2)nc1Cl [Compound 7, N-(Adamantan-1-ylmethyl)-3-chloro-1-pyrimidin-2-yl-1H-pyrazole-4-carboxamide]
≤ 2000 nM |  | Cc1nn(-c2nccnc2N)cc1C(=O)NCC1(c2ccc(C(F)(F)F)cc2)CCCCC1 [Compound 182, 1-(3-aminopyrazin-2-yl)-3-methyl-N-({1-[4-(trifluoromethyl)phenyl]cyclohexyl}methyl)-1H-pyrazole-4-carboxamide]
≤ 2000 nM |  | Cc1nn(-c2cccc(N)n2)cc1C(=O)NCC12CC3CC(CC(C3)C1)C2 [Compound 59, N-(adamantan-1-ylmethyl)-1-(6-aminopyridin-2-yl)-3-methyl-1H-pyrazole-4-carboxamide]
≤ 2000 nM |  | O=C(NCC1(c2cccnc2)CCCCC1)c1sc(N2CCOCC2)nc1C(F)(F)F [Compound 294, 2-morpholin-4-yl-N-[(1-pyridin-3-ylcyclohexyl)methyl]-4-(trifluoromethyl)-1,3-thiazole-5-carboxamide]
≤ 2000 nM |  | Nc1ccnc(-n2cc(C(=O)NCC34CC5CC(CC(C5)C3)C4)c(C3CC3)n2)n1 [Compound 146, N-(adamantan-1-ylmethyl)-1-(4-aminopyrimidin-2-yl)-3-cyclopropyl-1H-pyrazole-4-carboxamide]
≤ 2000 nM |  | CC(C)CCNC(=O)c1cn(-c2ncccn2)nc1C(F)(F)F [Compound 206, N-(3-methylbutyl)-1-pyrimidin-2-yl-3-(trifluoromethyl)-1H-pyrazole-4-carboxamide]
≤ 2000 nM |  | CCn1nc(C)c(Br)c1C(=O)NCC(c1ccccc1)c1ccccc1 [Compound 50, 4-bromo-N-(2,2-diphenylethyl)-1-ethyl-3-methyl-1H-pyrazole-5-carboxamide]
≤ 2000 nM |  | CC(CNC(=O)c1cn(-c2ncc(F)c(N)n2)nc1C(F)(F)F)c1ccc(Cl)cc1 (stereo not drawn) [Compound 149, 1-(4-amino-5-fluoropyrimidin-2-yl)-N-[2-(4-chlorophenyl)propyl]-3-(trifluoromethyl)-1H-pyrazole-4-carboxamide]
≤ 2000 nM |  | CCc1nc(-c2ncccn2)sc1C(=O)NCC12CC3CC(CC(C3)C1)C2 [Compound 247, N-(adamantan-1-ylmethyl)-4-ethyl-2-pyrimidin-2-yl-1,3-thiazole-5-carboxamide]
≤ 2000 nM |  | O=C(NCC12CC3CC(CC(C3)C1)C2)c1cnc(-c2ccccc2C(F)(F)F)s1 [Compound 67, N-(adamantan-1-ylmethyl)-2-[2-(trifluoromethyl)phenyl]-1,3-thiazole-5-carboxamide]
≤ 2000 nM |  | CCc1nc(-c2ncccn2)sc1C(=O)NCc1ccc(F)cc1Cl [Compound 231, N-(2-chloro-4-fluorobenzyl)-4-ethyl-2-pyrimidin-2-yl-1,3-thiazole-5-carboxamide]
≤ 2000 nM |  | Cc1cnc(-n2cc(C(=O)NCC3(c4ccc(F)cc4)CCCCC3)c(C(F)(F)F)n2)nc1N [Compound 190, 1-(4-amino-5-methylpyrimidin-2-yl)-N-{[1-(4-fluorophenyl)cyclohexyl]methyl}-3-(trifluoromethyl)-1H-pyrazole-4-carboxamide]
≤ 2000 nM |  | COc1ccc(-n2cc(C(=O)NCC34CC5CC(CC(C5)C3)C4)c(C(C)C)n2)nn1 [Compound 143, N-(adamantan-1-ylmethyl)-3-isopropyl-1-(6-methoxypyridazin-3-yl)-1H-pyrazole-4-carboxamide]

IC50 (Table I) | IC50 [1] | SMILES
≤ 2000 nM |  | Cc1cnc(-n2cc(C(=O)NCC34CC5CC(CC(C5)C3)C4)c(C)n2)nc1 [Compound 94, N-(adamantan-1-ylmethyl)-3-methyl-1-(5-methylpyrimidin-2-yl)-1H-pyrazole-4-carboxamide]
≤ 2000 nM |  | CCc1nc(-c2ncccn2)sc1C(=O)NCC(CC(C)C)c1ccc(C)cc1 (stereo not drawn) [Compound 275, 4-ethyl-N-[4-methyl-2-(4-methylphenyl)pentyl]-2-pyrimidin-2-yl-1,3-thiazole-5-carboxamide]
≤ 2000 nM |  | O=C(NCC12CC3CC(CC(C3)C1)C2)c1sc(-c2ccccc2C(F)(F)F)nc1Cl [Compound 65, N-(adamantan-1-ylmethyl)-4-chloro-2-[2-(trifluoromethyl)phenyl]-1,3-thiazole-5-carboxamide]
≤ 2000 nM |  | O=C(NCC(CC1CCCC1)c1ccccc1)c1cn(-c2ncccn2)nc1C(F)(F)F (stereo not drawn) [Compound 210, N-(3-cyclopentyl-2-phenylpropyl)-1-pyrimidin-2-yl-3-(trifluoromethyl)-1H-pyrazole-4-carboxamide]
≤ 2000 nM |  | Nc1cccnc1-n1cc(C(=O)NCC23CC4CC(CC(C4)C2)C3)c(C(F)(F)F)n1 [Compound 131, N-(adamantan-1-ylmethyl)-1-(3-aminopyridin-2-yl)-3-(trifluoromethyl)-1H-pyrazole-4-carboxamide]
≤ 2000 nM |  | Cc1cnc(-n2cc(C(=O)NCC(CC(C)C)c3ccc(C(F)(F)F)cc3)c(C(C)(C)C)n2)nc1N (stereo not drawn) [Compound 176, 1-(4-amino-5-methylpyrimidin-2-yl)-3-tert-butyl-N-{4-methyl-2-[4-(trifluoromethyl)phenyl]pentyl}-1H-pyrazole-4-carboxamide]
 | ≤ 2000 nM | COc1ccc(-c2nc(C(F)(F)F)c(C(=O)NCC3(c4cccnc4)CCCCC3)s2)cn1 [Compound 28, 2-(6-methoxy-pyridin-3-yl)-4-trifluoromethyl-thiazole-5-carboxylic acid (1-pyridin-3-yl-cyclohexylmethyl)-amide]
≤ 2000 nM |  | C=Cc1nc(-n2cc(C(=O)NCC34CC5CC(CC(C5)C3)C4)c(C)n2)ncc1C [Compound 103, N-(adamantan-1-ylmethyl)-3-methyl-1-(5-methyl-4-vinylpyrimidin-2-yl)-1H-pyrazole-4-carboxamide]
≤ 2000 nM |  | Nc1ccnc(-n2cc(C(=O)NCC3(c4cccnc4)CCCCC3)c(C(F)(F)F)n2)n1 [Compound 155, 1-(4-aminopyrimidin-2-yl)-N-[(1-pyridin-3-ylcyclohexyl)methyl]-3-(trifluoromethyl)-1H-pyrazole-4-carboxamide]
≤ 2000 nM |  | O=C(NCC(c1ccc(Cl)cc1)N1CCOCC1)c1sc(-c2ncccn2)nc1C(F)(F)F (stereo not drawn) [Compound 314, N-[2-(4-chlorophenyl)-2-morpholin-4-ylethyl]-2-pyrimidin-2-yl-4-(trifluoromethyl)-1,3-thiazole-5-carboxamide]
 | ≤ 2000 nM | COc1nn(-c2ncccn2)cc1C(=O)NCC12CC3CC(CC(C3)C1)C2 [Compound 5, N-(Adamantan-1-ylmethyl)-3-methoxy-1-pyrimidin-2-yl-1H-pyrazole-4-carboxamide]
≤ 2000 nM |  | Cc1ccc(C2(CNC(=O)c3cn(-c4ncc(F)c(N)n4)nc3C(F)(F)F)CCCCC2)cn1 [Compound 138, 1-(4-amino-5-fluoropyrimidin-2-yl)-N-{[1-(6-methylpyridin-3-yl)cyclohexyl]methyl}-3-(trifluoromethyl)-1H-pyrazole-4-carboxamide]
≤ 2000 nM |  | Cc1ccc(-n2cc(C(=O)NCC34CC5CC(CC(C5)C3)C4)c(C(F)(F)F)n2)nc1 [Compound 124, N-(adamantan-1-ylmethyl)-1-(5-methylpyridin-2-yl)-3-(trifluoromethyl)-1H-pyrazole-4-carboxamide]
≤ 2000 nM |  | Cc1nn(-c2cnc(N)cn2)cc1C(=O)NCC12CC3CC(CC(C3)C1)C2 [Compound 61, N-(adamantan-1-ylmethyl)-1-(5-aminopyrazin-2-yl)-3-methyl-1H-pyrazole-4-carboxamide]
≤ 2000 nM |  | Cc1nc(-c2cccnc2)sc1C(=O)NCC1(c2cccnc2)CCCCC1 [Compound 311, 4-methyl-2-pyridin-3-yl-N-[(1-pyridin-3-ylcyclohexyl)methyl]-1,3-thiazole-5-carboxamide]
≤ 2000 nM |  | Cc1nn(-c2cncc(N)n2)cc1C(=O)NCC1(c2ccc(C(F)(F)F)cc2)CCCCC1 [Compound 183, 1-(6-aminopyrazin-2-yl)-3-methyl-N-({1-[4-(trifluoromethyl)phenyl]cyclohexyl}methyl)-1H-pyrazole-4-carboxamide]

SMILES | IC50 (Table I) | IC50 [1]
O=C(NCC1(N2CCCCC2)CCCCC1)c1sc(-c2ncccn2)nc1C(F)(F)F [Compound 296, N-[(1-piperidin-1-ylcyclohexyl)methyl]-2-pyrimidin-2-yl-4-(trifluoromethyl)-1,3-thiazole-5-carboxamide] | ≤ 2000 nM | 
